Experimental data taken from ChEMBL document CHEMBL4190257, “Discovery of phenylsulfonyl acetic acid derivatives with improved efficacy and safety as potent free fatty acid receptor 1 agonists for the treatment of type 2 diabetes” (Eur J Med Chem, 2017).
Calls of active or inactive are those of the source. The rule behind the calls is not given here.

How the values were obtained:
[1] = tested on: HepG2; experiment: Apoptotic cytotoxicity in human HepG2 cells assessed as caspase-3/7 activity at 30 uM after 24 hrs by caspase-glo-3/7 assay relative to staurosporine; format: cell-based; settings: hepg2, 24 h
[2] = molecular target: T1, Free fatty acid receptor 1 (Homo sapiens, UniProt O14842); experiment: Agonist activity at human FFA1 receptor expressed in CHO cells assessed as increase in intracellular calcium flux by Fluo 4AM dye-based FLIPR assay; format: functional, cell-based
[3] = molecular target: T1, Free fatty acid receptor 1; experiment: Agonist activity at human FFA1 receptor expressed in CHO cells assessed as increase in intracellular calcium flux at 10 uM by Fluo 4AM dye-based FLIPR assay relative to TAK-875; format: functional, cell-based
[4] = Octanol/phosphate buffer distribution coefficient, log D of the compound at 100 uM at pH 7.4 after 24 hrs by shake flask method; format: physicochemical
[5] = Drug level in Sprague-Dawley rat plasma treated with 2-((4-((2'-chloro-[1,1'-biphenyl]-3-yl)methoxy)phenyl)sulfonyl)acetic acid at 10 mg/kg, po measured up to 24 hrs post dose by LC-PDA-MS/MS analysis; format: ADME, organism-based; settings: in vivo
[6] = Half life in fasted Sprague-Dawley rat at 10 mg/kg, po administered as single dose measured up to 24 hrs post dose by LC-PDA-MS/MS analysis; format: ADME, organism-based; settings: in vivo
[7] = AUC (0 to 24 hrs) in fasted Sprague-Dawley rat at 10 mg/kg, po administered as single dose measured up to 24 hrs post dose by LC-PDA-MS/MS analysis; format: ADME, organism-based; design: time < 24 hr, dose 10 mg/kg, route oral; settings: in vivo
[8] = Clearance in fasted Sprague-Dawley rat at 10 mg/kg, po administered as single dose measured up to 24 hrs post dose by LC-PDA-MS/MS analysis; format: ADME, organism-based; settings: in vivo
[9] = Cmax in fasted Sprague-Dawley rat at 10 mg/kg, po administered as single dose measured up to 24 hrs post dose by LC-PDA-MS/MS analysis; format: ADME, organism-based; design: dose 10 mg/kg, route oral; settings: in vivo
[10] = tested on: Rattus norvegicus; experiment: Antidiabetic activity in po dosed Sprague-Dawley rat assessed as increase in insulin secretion administered as single dose followed by subsequent glucose challenge at 60 mins post administration measured up to 120 mins post dose by ELISA; format: functional, organism-based
[11] = tested on: Mus musculus; experiment: Renal toxicity in ICR mouse assessed as BUN level at 30 mg/kg, dosed daily via oral gavage for 30 days (reference value: 7.4 +/- 1.6 mmol/L); format: organism-based; settings: in vivo, 720 h
[12] = tested on: Mus musculus; experiment: Hepatotoxicity in ICR mouse assessed as serum TBIL level at 30 mg/kg, dosed daily via oral gavage for 30 days (reference value: 4.3 +/- 1.3 IU/L); format: toxicity, organism-based; settings: in vivo, 720 h
[13] = Drug metabolism in Sprague-Dawley rat plasma assessed as 2-(2-(4-((2'-chlorobiphenyl-3-yl)methoxy)phenylsulfonyl)acetamido)ethanesulfonic acid formation at 10 mg/kg, po measured up to 24 hrs post dose by LC-PDA-MS/MS analysis; format: ADME, organism-based; settings: in vivo
[14] = tested on: Mus musculus; experiment: Renal toxicity in ICR mouse assessed as serum creatinine level at 30 mg/kg, dosed daily via oral gavage for 30 days (reference value: 40.9 +/- 2.6 umol/L); format: organism-based; settings: in vivo, 720 h
[15] = tested on: Rattus norvegicus; experiment: Antidiabetic activity in po dosed Sprague-Dawley rat assessed as reduction in plasma glucose excursion administered as single dose followed by subsequent glucose challenge at 60 mins post administration measured up to 120 mins post dose by OGTT method; format: functional, organism-based
[16] = tested on: Rattus norvegicus; experiment: Antidiabetic activity in po dosed Sprague-Dawley rat assessed as reduction in blood glucose AUC (0 to 120 mins) administered as single dose followed by subsequent glucose challenge at 60 mins post administration by OGTT method; format: functional
[17] = tested on: Mus musculus; experiment: Hepatotoxicity in ICR mouse assessed as serum ALT level at 30 mg/kg, dosed daily via oral gavage for 30 days (reference value: 34.7 +/- 5.6 IU/L); format: toxicity, organism-based; settings: in vivo, 720 h
[18] = tested on: Rattus norvegicus; experiment: Hypoglycemic effect in fasting Sprague-Dawley rat at 30 mg/kg, po measured up to 180 mins post dose; format: ADME, organism-based; settings: in vivo, 3 h
[19] = tested on: Rattus norvegicus; experiment: Antidiabetic activity in po dosed Sprague-Dawley rat assessed as increase in blood insulin AUC (0 to 120 mins) administered as single dose followed by subsequent glucose challenge at 60 mins post administration by ELISA method; format: functional
[20] = Drug metabolism in Sprague-Dawley rat plasma assessed as (2S,3R,4S,5S,6R)-3,4,5-trihydroxy-6-(hydroxymethyl)tetrahydro-2H-pyran-2-yl 2-(4-((2'-chlorobiphenyl-3-yl)methoxy)phenylsulfonyl)acetate formation at 10 mg/kg, po measured up to 24 hrs post dose by LC-PDA-MS/MS analysis; format: ADME, organism-based; settings: in vivo
[21] = tested on: Mus musculus; experiment: Hepatotoxicity in ICR mouse assessed as serum AST level at 30 mg/kg, dosed daily via oral gavage for 30 days (reference value: 135.6 +/- 15.2 IU/L); format: toxicity, organism-based; settings: in vivo, 720 h
[22] = Drug metabolism in Sprague-Dawley rat plasma assessed as beta-oxidation metabolite formation at 10 mg/kg, po measured up to 24 hrs post dose by LC-PDA-MS/MS analysis; format: ADME, organism-based; settings: in vivo
[23] = tested on: Mus musculus; experiment: Antihyperglycemic activity in high fat diet fed/streptozotocin-induced type 2 diabetic C57BL/6 mouse model assessed as reduction in plasma glucose AUC (0 to 120 mins) at 20 mg/kg, po administered as single dose followed by subsequent glucose challenge at 60 mins post administration by OGTT method; format: functional, organism-based
[24] = Drug metabolism in Sprague-Dawley rat plasma assessed as cytochrome P450-mediated 2'-chlorobiphenyl-3-carboxylic acid formation at 10 mg/kg, po measured up to 24 hrs post dose by LC-PDA-MS/MS analysis; format: ADME, organism-based; settings: in vivo

T1 sequence (O14842 whole entry): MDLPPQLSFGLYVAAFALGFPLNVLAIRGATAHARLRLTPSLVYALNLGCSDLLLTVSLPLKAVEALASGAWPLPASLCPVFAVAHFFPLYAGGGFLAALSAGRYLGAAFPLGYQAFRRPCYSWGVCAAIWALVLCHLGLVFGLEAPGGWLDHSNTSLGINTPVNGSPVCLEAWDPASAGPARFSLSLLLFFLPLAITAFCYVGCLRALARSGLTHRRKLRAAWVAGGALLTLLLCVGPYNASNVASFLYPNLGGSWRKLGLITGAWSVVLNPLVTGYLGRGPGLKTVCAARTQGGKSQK

SMILES | EC50 [2] [nM] | Efficacy [3] [%] | logD at 24 h, 100 µM [4] | Activity [1] [%] | further results
O=C(CS(=O)(=O)c1ccc(OCc2cccc(-c3ccccc3Cl)c2)cc1)NCCS(=O)(=O)O |  |  |  |  | Drug metabolism [5]: Metabolite_Detected
O=C(O)c1cccc(-c2ccccc2Cl)c1 |  |  |  |  | Drug metabolism [5]: Metabolite_Detected
O=C(O)CS(=O)(=O)c1ccc(OCc2cccc(-c3ccccc3)c2)cc1 | 288 | 94 | 2.13 | -1.9 | 
Cc1cc(OCC2CC2)cc(C)c1-c1cccc(COc2ccc(S(=O)(=O)CC(=O)O)cc2)c1 | 79.4 | 98 | 3.46 | 26.3 | 
CC(C)c1ccccc1-c1cccc(COc2ccc(S(=O)(=O)CC(=O)O)cc2)c1 | 74.1 | 101 | 3.18 |  | 
CCCOc1cc(C)c(-c2cccc(COc3ccc(S(=O)(=O)CC(=O)O)cc3)c2)c(C)c1 | 69.2 | 104 | 3.58 | 29.5 | 
O=C(CS(=O)(=O)c1ccc(OCc2cccc(-c3ccccc3Cl)c2)cc1)O[C@@H]1O[C@H](CO)[C@@H](O)[C@H](O)[C@H]1O |  |  |  |  | Drug metabolism [5]: Metabolite_Detected

Now from value to molecule, other results behind:

EC50 [2] [nM] | Efficacy [3] [%] | logD at 24 h, 100 µM [4] | SMILES | Activity [1] [%] | further results
51.3 | 105 | 3.12 | CCOc1ccc(-c2cccc(COc3ccc(S(=O)(=O)CC(=O)O)cc3)c2)c(Cl)c1 | 26.9 | 
46.8 | 113 | 2.35 | Cc1ccccc1-c1cccc(COc2ccc(S(=O)(=O)CC(=O)O)cc2)c1 | -2.7 | 
15.5 | 116 | 3.75 | Cc1cc(OCCCS(C)(=O)=O)cc(C)c1-c1cccc(COc2ccc(CCC(=O)O)cc2)c1 | 46.8 | half-life [6]: 1.09 h; AUC(0-t) at 24 h [7]: 1020 ng·h/mL; CL/F [8]: 118 mL/min/kg; Cmax [9]: 517 ng/mL
28.8 | 115 | 2.47 | O=C(O)CS(=O)(=O)c1ccc(OCc2cccc(-c3ccccc3Cl)c2)cc1 | -1.6 | Activity [10]: Dose-dependent effect; Activity [11]: 7.9 mmol/L; Activity [12]: 4.1 IU/L; Drug metabolism [13]: Metabolite_Detected; Activity [14]: 41.4 µmol/L; Activity [15]: Dose-dependent effect; MEC [16]: 3 mg/kg; Activity [17]: 35.4 IU/L; half-life [6]: 5.57 h; AUC(0-t) at 24 h [7]: 30200 ng·h/mL; Activity [18]: Non-Toxic; MEC [19]: 3 mg/kg; Drug metabolism [20]: Metabolite_Detected; Activity [21]: 128.2 IU/L; Drug metabolism [22]: Metabolite_Detected; Activity [23]: Active; CL/F [8]: 2.57 mL/min/kg; Cmax [9]: 2560 ng/mL; Drug metabolism [24]: Metabolite_Detected
52.5 | 108 | 2.95 | O=C(O)CS(=O)(=O)c1ccc(OCc2cccc(-c3ccccc3C(F)(F)F)c2)cc1 | 12.5 | 
63.1 | 107 | 2.86 | CCOc1cc(C)c(-c2cccc(COc3ccc(S(=O)(=O)CC(=O)O)cc3)c2)c(C)c1 | 6.7 | 
66.1 | 103 | 2.49 | Cc1cccc(C)c1-c1cccc(COc2ccc(S(=O)(=O)CC(=O)O)cc2)c1 | -1.5 | 
36.3 | 112 | 3.05 | Cc1ccc(-c2cccc(COc3ccc(S(=O)(=O)CC(=O)O)cc3)c2)c(Cl)c1 | 17.6 | 
57.5 | 106 | 2.45 | COc1cc(C)c(-c2cccc(COc3ccc(S(=O)(=O)CC(=O)O)cc3)c2)c(C)c1 | -2.4 | 
